Molecular target: Protein Wnt-3a (Human, UniProt P56704)
Experiment: WNT pathway reporter gene assay
Protocol: NIH3T3 mouse fibroblast cells (American Type Culture Collection, Manassas, Va.) were transfected with a plasmid containing a luciferase gene driven by 5 copies of TCF elements. Stale cells selected with 1 μg/mL of Zeocin (Gibco/Invitrogen, Carlsbad, Calif.) are cultured in Dulbecco's modified Eagle's medium (Invitrogen, Carlsbad, Calif.) supplemented with 10% FBS (Invitrogen), 50 unit/mL penicillin and 50 μg/mL of streptomycin (Invitrogen) at 37° C. with 5% CO2 in air atmosphere. […] After 16 hours, the firefly luciferase activities are measured with the Steady-Glo Luciferase Assay System (Promega). The cells were treated with different concentrations of compounds of this invention during the co-culture. […] To normalize for cell quantity and viability, CellTiter Glo assay is next performed in a duplicate plate.

Chain of Protein Wnt-3a (P56704 whole entry): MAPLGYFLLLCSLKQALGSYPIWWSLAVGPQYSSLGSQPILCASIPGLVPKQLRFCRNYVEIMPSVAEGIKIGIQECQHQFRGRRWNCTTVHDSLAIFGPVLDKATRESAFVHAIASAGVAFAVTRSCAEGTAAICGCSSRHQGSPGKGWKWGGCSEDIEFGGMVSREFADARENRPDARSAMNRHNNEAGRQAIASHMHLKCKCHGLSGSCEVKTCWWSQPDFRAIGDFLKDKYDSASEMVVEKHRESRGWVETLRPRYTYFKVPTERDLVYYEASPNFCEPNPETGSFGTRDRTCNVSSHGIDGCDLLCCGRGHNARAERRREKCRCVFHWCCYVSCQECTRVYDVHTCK

Structure (SMILES) | IC50
Cc1cc(-c2ncc(CNc3nccc4cc(-c5cnccn5)ccc34)cc2C)ccn1 [US10087181, Compound 70] | < 3 nM
Cc1cc(-c2cc3ccnc(NCc4ccc(-c5ccnc(C)c5)c(C)c4)c3cn2)ccn1 [US10087181, Compound 2] | < 3 nM
Cc1cc(-c2cc3ccnc(NCc4ccc(-c5ccnc(F)c5)c(F)c4)c3cn2)ccn1 [US10087181, Compound 28] | < 3 nM
Cc1cc(-c2ccc(CNc3nccc4cc(-c5cnccn5)ncc34)cc2)ccn1 [US10087181, Compound 35] | < 3 nM
Cc1cc(-c2ccc(CNc3nccc4cc(-c5ccnc(C)c5)ncc34)cc2)ccn1 [US10087181, Compound 1] | < 3 nM

Reference: BindingDB's records for patent US10087181 (Curegenix, 2018)
